Test results as given in patent EP1276722B1, “NAPHTHAMIDINE UROKINASE INHIBITORS” (ABBOTT LABORATORIES, priority 2000, dated 2001).

Tested on: angiogenesis
Test: not given
Settings: J. Cell Biol. 1991, 115[3 Pt 2], 402a; cited from earlier work

SMILES | angiogenesis in vitro
N=C(N)NC(=O)c1nc(Cl)c(N)nc1N [Amiloride] | inhibit

Molecular target: T1, urokinase enzyme Abbokinase (Homo sapiens, UniProt P00749)
T1 construct: purchased Abbott Laboratories, Abbott Park, IL
Test: Inhibition of urokinase on chromogenic substrate S-2444
Format: biochemical
Settings: not given

SMILES | Ki [nM]
COC/C=C/c1cc(C2CC2c2ccc3c(c2)C(C(C)C)N(C)CC3)cc2ccc(C(=N)N)cc12 (centres unmarked) [Example 5, 6-(2-(1-isopropyl-2-methyl-1,2,3,4-tetrahydro-7-isoquinolinyl)cyclopropyl)-8-((1E)-3-methoxy-1-propenyl)-2-naphthalenecarboximidamide] | 21

Same assay, conditions: read-out: Ki

SMILES | Ki [nM]
C=C(C)/C=C/c1cc(C2CC2c2ccc3c(c2)C(C(C)C)N(C)CC3)cc2ccc(C(=N)N)cc12 (centres unmarked) [Example 38, 6-(2-(1-isopropyl-2-methyl-1,2,3,4-tetrahydro-7-isoquinolinyl)cyclopropyl)-8-((1E)-3-methyl-1,3-butadienyl)-2-naphthalenecarboximidamide] | 40
CC(C)C1c2cc(C3CC3c3ccc4cc(C(=N)N)ccc4c3)ccc2CCN1CC(F)(F)F (centres unmarked) [Example 33, 6-(2-(1-isopropyl-2-(2,2,2-trifluoroethyl)-1,2,3,4-tetrahydro-7-isoquinolinyl)cyclopropyl)-2-naphthalenecarboximidamide] | 1440
CC(C)C1=NCCc2ccc(C3CC3c3cc(-c4ccoc4)c4cc(C(=N)N)ccc4c3)cc21 (centres unmarked) [Example 1, 8-(3-furyl)-6-(2-(1-isopropyl-3,4-dihydro-7-isoquinolinyl)cyclopropyl)-2-naphthalenecarboximidamide] | 41
CC(C)C1c2cc(C3CC3c3ccc4cc(C(=N)N)ccc4c3)ccc2CCN1CCO (centres unmarked) [Example 26, 6-(2-(2-(2-hydroxyethyl)-1-isopropyl-1,2,3,4-tetrahydro-7-isoquinolinyl)cyclopropyl)-2-naphthalenecarboximidamide] | 48
CC(C)/C=C/c1cc(C2CC2c2ccc3c(c2)C(C2CCCCC2)N(C)CC3)cc2ccc(C(=N)N)cc12 (centres unmarked) [Example 59, 6-(2-(1-cyclohexyl-2-methyl-1,2,3,4-tetrahydro-7-isoquinolinyl)cyclopropyl)-8-((1E)-3-methyl-1-butenyl)-2-naphthalenecarboximidamide] | 10
CC(C)C1NCCc2ccc(C=Cc3ccc4cc(C(=N)N)ccc4c3)cc21 (centres unmarked) [Example 13, 6-(2-(1-isopropyl-1,2,3,4-tetrahydro-7-isoquinolinyl)ethenyl)-2-naphthalenecarboximidamide] | 260
CC(C)C1NCCc2ccc(C3CC3c3ccc4cc(C(=N)N)ccc4c3)cc21 (centres unmarked) [Example 20, 6-(2-(1-isopropyl-1,2,3,4-tetrahydro-7-isoquinolinyl)cyclopropyl)-2-naphthalenecarboximidamide] | 84
CC(C)C1c2cc(C3CC3c3ccc4cc(C(=N)N)ccc4c3)ccc2CCN1CC1CC1 (centres unmarked) [Example 23, 6-(2-(2-(cyclopropylmethyl)-1-isopropyl-1,2,3,4-tetrahydro-7-isoquinolinyl)cyclopropyl)-2-naphthalenecarboximidamide] | 58
CCN1CCc2ccc(C3CC3c3ccc4cc(C(=N)N)ccc4c3)cc2C1C(C)C (centres unmarked) [Example 24, 6-(2-(2-ethyl-1-isopropyl-1,2,3,4-tetrahydro-7-isoquinolinyl)cyclopropyl)-2-naphthalenecarboximidamide] | 54
CC(C)c1nccc2ccc(C3CC3c3ccc4cc(C(=N)N)ccc4c3)cc12 (centres unmarked) [Example 2, 6-(2-(1-isopropyl-7-isoquinolinyl)cyclopropyl)-2-naphthalenecarboximidamide] | 480
CCC1CN(Cc2ccccc2)Cc2ccc(C3CC3c3ccc4cc(C(=N)N)ccc4c3)cc21 (centres unmarked) [Example 49, 6-(2-(2-benzyl-4-ethyl-1,2,3,4-tetrahydro-6-isoquinolinyl)cyclopropyl)-2-naphthalenecarboximidamide] | 278

Tested on: tumor metastasis
Test: not given
Settings: Anticancer Res. 1988, 8, 1373-1376; cited from earlier work

SMILES | tumor metastasis in vivo
N=C(N)NC(=O)c1nc(Cl)c(N)nc1N [Amiloride] | inhibit
